According to the supplement of paper PMC10307832:

Key:
Test in all cases: relative viability (nuclei count vs DMSO), 5 days (fraction); higher = more cells survive
NCI-H322M = test system: NCI-H322M
Summary of the method: (§1)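 A single step with final 0.05% Triton X-100, 1% formaldehyde and 1 ug/ml Hoechst fixed the cells and stained nuclei 5 days after treatment. Lung cancer cell lines in 1536-well plates had been treated by pin tool the day after seeding with one drug alone or a fixed anchor-drug dose plus five library-drug doses (not always all listed) in √10 steps, and nuclei were counted on 4× images. Relative viability is the ratio of nuclei in treated wells to nuclei in vehicle wells, taken as the median of duplicate plates.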

NCI-H2347 = test system: NCI-H2347
Summary of the method: as §1

NCI-H727 = test system: NCI-H727
Summary of the method: as §1

NCI-H2085 = test system: NCI-H2085
Summary of the method: as §1

NCI-H647 = test system: NCI-H647
Summary of the method: as §1

NCI-H2009 = test system: NCI-H2009
Summary of the method: as §1

NCI-H1650 = test system: NCI-H1650
Summary of the method: as §1

NCI-H2126 = test system: NCI-H2126
Summary of the method: as §1

NCI-H1993 = test system: NCI-H1993
Summary of the method: as §1

SW 1573 = test system: SW 1573
Summary of the method: as §1

NCI-H661 = test system: NCI-H661
Summary of the method: as §1

SK-LU-1 = test system: SK-LU-1
Summary of the method: as §1

NCI-H1915 = test system: NCI-H1915
Summary of the method: as §1

HOP-62 = test system: HOP-62
Summary of the method: as §1

NCI-H2023 = test system: NCI-H2023
Summary of the method: as §1

EMC-BAC-2 = test system: EMC-BAC-2
Summary of the method: as §1

NCI-H2342 = test system: NCI-H2342
Summary of the method: as §1

PC-14 = test system: PC-14
Summary of the method: as §1

LCLC-97TM1 = test system: LCLC-97TM1
Summary of the method: as §1

LXF-289 = test system: LXF-289
Summary of the method: as §1

H3255 = test system: H3255
Summary of the method: as §1

EPLC-272H = test system: EPLC-272H
Summary of the method: as §1

`NC(=O)Nc1cc(-c2cccc(F)c2)sc1C(=O)N[C@H]1CCCNC1` [AZD7762] + O=C(CCCCCCC(=O)Nc1ccccc1)NO [Vorinostat] (partner 1 µM) gave a relative viability (NCI-H322M; first compound 0.01 µM) of 0.822, a relative viability (NCI-H322M; first compound 0.03162 µM) of 0.967 and a relative viability (NCI-H322M; first compound 0.1 µM) of 0.935. It also gave a relative viability (NCI-H322M; first compound 0.3162 µM) of 0.792, a relative viability (NCI-H322M; first compound 1 µM) of 0.478 and a relative viability (NCI-H2347; first compound 0.01 µM) of 0.554. For the same compound, the relative viability (NCI-H2347; first compound 0.03162 µM) was 0.711, the relative viability (NCI-H2347; first compound 0.1 µM) was 0.557 and the relative viability (NCI-H2347; first compound 0.3162 µM) was 0.637. For the same compound, the relative viability (NCI-H2347; first compound 1 µM) was 0.547, the relative viability (NCI-H727; first compound 0.01 µM) was 1.18 and the relative viability (NCI-H727; first compound 0.03162 µM) was 1.26. The relative viability (NCI-H727; first compound 0.1 µM) was 1.2, the relative viability (NCI-H727; first compound 0.3162 µM) was 1.24 and the relative viability (NCI-H727; first compound 1 µM) was 0.868. The relative viability (NCI-H2085; first compound 0.01 µM) was 0.788, the relative viability (NCI-H2085; first compound 0.03162 µM) was 0.784 and the relative viability (NCI-H2085; first compound 0.1 µM) was 0.862. It also gave a relative viability (NCI-H2085; first compound 0.3162 µM) of 0.803, a relative viability (NCI-H2085; first compound 1 µM) of 0.628 and a relative viability (NCI-H647; first compound 0.01 µM) of 0.637. For the same compound, the relative viability (NCI-H647; first compound 0.03162 µM) was 0.554, the relative viability (NCI-H647; first compound 0.1 µM) was 0.521 and the relative viability (NCI-H647; first compound 0.3162 µM) was 0.281. The relative viability (NCI-H647; first compound 1 µM) was 0.108, the relative viability (NCI-H2009; first compound 0.01 µM) was 0.794 and the relative viability (NCI-H2009; first compound 0.03162 µM) was 0.733. For the same compound, the relative viability (NCI-H2009; first compound 0.1 µM) was 0.693, the relative viability (NCI-H2009; first compound 0.3162 µM) was 0.688 and the relative viability (NCI-H2009; first compound 1 µM) was 0.625. It also gave a relative viability (NCI-H1650; first compound 0.01 µM) of 0.622, a relative viability (NCI-H1650; first compound 0.03162 µM) of 0.719 and a relative viability (NCI-H1650; first compound 0.1 µM) of 0.651. The relative viability (NCI-H1650; first compound 0.3162 µM) was 0.392, the relative viability (NCI-H1650; first compound 1 µM) was 0.157 and the relative viability (NCI-H2126; first compound 0.01 µM) was 0.688. It also gave a relative viability (NCI-H2126; first compound 0.03162 µM) of 0.867, a relative viability (NCI-H2126; first compound 0.1 µM) of 0.735 and a relative viability (NCI-H2126; first compound 0.3162 µM) of 0.773. It also gave a relative viability (NCI-H2126; first compound 1 µM) of 0.775, a relative viability (NCI-H1993; first compound 0.01 µM) of 0.764 and a relative viability (NCI-H1993; first compound 0.03162 µM) of 0.729. It also gave a relative viability (NCI-H1993; first compound 0.1 µM) of 0.725, a relative viability (NCI-H1993; first compound 0.3162 µM) of 0.813 and a relative viability (NCI-H1993; first compound 1 µM) of 0.391. For the same compound, the relative viability (SW 1573; first compound 0.01 µM) was 1.16, the relative viability (SW 1573; first compound 0.03162 µM) was 0.994 and the relative viability (SW 1573; first compound 0.1 µM) was 0.821. For the same compound, the relative viability (SW 1573; first compound 0.3162 µM) was 0.648, the relative viability (SW 1573; first compound 1 µM) was 0.102 and the relative viability (NCI-H661; first compound 0.01 µM) was 0.929. The relative viability (NCI-H661; first compound 0.03162 µM) was 0.867, the relative viability (NCI-H661; first compound 0.1 µM) was 0.98 and the relative viability (NCI-H661; first compound 0.3162 µM) was 0.604. For the same compound, the relative viability (NCI-H661; first compound 1 µM) was 0.341, the relative viability (SK-LU-1; first compound 0.01 µM) was 0.909 and the relative viability (SK-LU-1; first compound 0.03162 µM) was 0.663. For the same compound, the relative viability (SK-LU-1; first compound 0.1 µM) was 0.563, the relative viability (SK-LU-1; first compound 0.3162 µM) was 0.273 and the relative viability (SK-LU-1; first compound 1 µM) was 0.276. It also gave a relative viability (NCI-H1915; first compound 0.01 µM) of 0.567, a relative viability (NCI-H1915; first compound 0.03162 µM) of 0.526 and a relative viability (NCI-H1915; first compound 0.1 µM) of 0.462. The relative viability (NCI-H1915; first compound 0.3162 µM) was 0.474, the relative viability (NCI-H1915; first compound 1 µM) was 0.373 and the relative viability (HOP-62; first compound 0.01 µM) was 0.571. The relative viability (HOP-62; first compound 0.03162 µM) was 0.68, the relative viability (HOP-62; first compound 0.1 µM) was 0.701 and the relative viability (HOP-62; first compound 0.3162 µM) was 0.607. For the same compound, the relative viability (HOP-62; first compound 1 µM) was 0.237, the relative viability (NCI-H2023; first compound 0.01 µM) was 0.548 and the relative viability (NCI-H2023; first compound 0.03162 µM) was 0.415. For the same compound, the relative viability (NCI-H2023; first compound 0.1 µM) was 0.257, the relative viability (NCI-H2023; first compound 0.3162 µM) was 0.184 and the relative viability (NCI-H2023; first compound 1 µM) was 0.0942. The relative viability (EMC-BAC-2; first compound 0.01 µM) was 0.416, the relative viability (EMC-BAC-2; first compound 0.03162 µM) was 0.475 and the relative viability (EMC-BAC-2; first compound 0.1 µM) was 0.523. It also gave a relative viability (EMC-BAC-2; first compound 0.3162 µM) of 0.456, a relative viability (EMC-BAC-2; first compound 1 µM) of 0.456 and a relative viability (NCI-H2342; first compound 0.01 µM) of 0.715. The relative viability (NCI-H2342; first compound 0.03162 µM) was 0.85, the relative viability (NCI-H2342; first compound 0.1 µM) was 0.722 and the relative viability (NCI-H2342; first compound 0.3162 µM) was 0.74. It also gave a relative viability (NCI-H2342; first compound 1 µM) of 0.633, a relative viability (PC-14; first compound 0.01 µM) of 0.761 and a relative viability (PC-14; first compound 0.03162 µM) of 0.591. It also gave a relative viability (PC-14; first compound 0.1 µM) of 0.57, a relative viability (PC-14; first compound 0.3162 µM) of 0.292 and a relative viability (PC-14; first compound 1 µM) of 0.0419. For the same compound, the relative viability (LCLC-97TM1; first compound 0.01 µM) was 0.799, the relative viability (LCLC-97TM1; first compound 0.03162 µM) was 0.725 and the relative viability (LCLC-97TM1; first compound 0.1 µM) was 0.648. The relative viability (LCLC-97TM1; first compound 0.3162 µM) was 0.636, the relative viability (LCLC-97TM1; first compound 1 µM) was 0.356 and the relative viability (LXF-289; first compound 0.01 µM) was 0.67. It also gave a relative viability (LXF-289; first compound 0.03162 µM) of 0.802, a relative viability (LXF-289; first compound 0.1 µM) of 0.77 and a relative viability (LXF-289; first compound 0.3162 µM) of 0.78. It also gave a relative viability (LXF-289; first compound 1 µM) of 0.83, a relative viability (H3255; first compound 0.01 µM) of 0.944 and a relative viability (H3255; first compound 0.03162 µM) of 0.831. For the same compound, the relative viability (H3255; first compound 0.1 µM) was 0.809, the relative viability (H3255; first compound 0.3162 µM) was 0.722 and the relative viability (H3255; first compound 1 µM) was 0.684. For the same compound, the relative viability (EPLC-272H; first compound 0.01 µM) was 0.705, the relative viability (EPLC-272H; first compound 0.03162 µM) was 0.543 and the relative viability (EPLC-272H; first compound 0.1 µM) was 0.383. For the same compound, the relative viability (EPLC-272H; first compound 0.3162 µM) was 0.107 and the relative viability (EPLC-272H; first compound 1 µM) was 0.0642.
